US12042478B2, “(R)-2-[(2H-1,3-benzodioxol-5-yl)methyl]pyrrolidine and processes for preparation, compositions and uses thereof” (Pharmala Biotech Inc., priority 2022, dated 2024)

Experiments:
Type in all cases: in vivo, mouse
[1] = tested on: C57 and BTBR mice; experiment: Radiotelemetry of core temperature; details: for core body temperature change: 5.6 mg/kg IP; for effect on core temperature: 10 mg/kg; for core temperature response, comparison of strains: C57 vs BTBR mice
Experimental: The radiotelemetry assay was conducted in adult male C57 and BTBR mice (n=6 per group) in a dedicated testing room where ambient light, sound, and human contact were tightly controlled.
Prior to surgical implantation of radiotelemetry probes, mice received 3 mg/kg meloxicam (IP), and anesthesia was induced with 4% inhaled isoflurane and maintained with 1-3% isoflurane (as needed) throughout the procedure at a flow rate of 1.5 litres/minute. The abdominal area of each animal was treated with depilatory cream, then sanitized with 3 alternating scrubs with iodine and alcohol. A rostral-caudal cut approximately 1.5 cm in length was made with sterile skin scissors, providing access to the intraperitoneal cavity. A cylindrical glass-encapsulated radiotelemetry probe (model ER-4000 E-Mitter, Mini Mitter, Bend, OR, USA) was then inserted. These probes measure 15.5 mm×6.5 mm and weigh approximately 1 gram. Incisions were closed (skin layer and muscle layer separately) using reverse cutting 5-0 Vicryl absorbable sutures for the muscle layer and 5-0 nylon suture material for the skin layer. Surgeries were carried out at least 7 days before initiation of experimental conditions, allowing time for incisions to heal and for animals to recover normal body weights. Following surgery, all implanted mice were individually housed in Plexiglas cages within the telemetry room for the duration of all experiments. Implanted transmitters produce activity- and temperature-modulated signals which are sent to a receiver (model ER-4000 Receiver, Mini Mitter Co., Inc.) underneath each cage. Following use, telemetry probes were removed from carcasses, wiped with alcohol swabs, and stored in the disinfectant solution until re-use.
At least 7 days after surgical implantation of radiotelemetry probes, mice in their individual home cages were placed atop a telemetry energizer/receiver, which powers probes and transmits their data to an interfaced computer. Upon initiation of an experimental session, the computer collects two data updates from the probes at 5 min intervals: core temperature (in ° C.) on one channel, and locomotor counts (in arbitrary units, depending on the relative position of the probe atop the receiver) on the other. After at least 60 minutes of baseline data collection, mice were removed from their cages, injected with saline or a given dose of a specific drug, then returned to the home cage 24 hours of data collection.
Food and water were always freely available in the home cage. Mice were injected with ascending doses of a given drug, with at least 48 hours separating doses. Because there are few studies of drug effects in BTBR mice, the first drug dose tested occasionally elicited unexpectedly large locomotor effects in these animals. In these cases, smaller drug doses were tested next, after a washout period of at least one full day.

[2] = tested on: C57 and BTBR mice; experiment: Tail cuff blood pressure monitoring (CODA non-invasive system); details: for toxicity (blood pressure) relative to racemic MDMA: IP
Experimental: The 8 chamber CODA™ Non-invasive blood pressure system was set up to monitor the blood pressure of C57 and BTBR mice. Mice were habituated to restraint, saline injection (IP), and tail-cuff pressure monitoring for at least three days before drug administration. Across days, groups of habituated mice were injected IP with increasing doses of test drug, in this case (R)-I, (S)-I and (R/S)-I, then returned to the home cage for 30 min. Tail cuff pressure monitoring then determined effects on systolic, diastolic, and mean arterial pressure in restrained C57 and BTBR mice in sessions lasting ˜30 min.
In the tail cuff pressure monitoring, an occlusion tail cuff was inflated to impede the blood flow to the tail. The cuff was deflated slowly, and a second tail cuff, incorporating the VPR sensor, measured the physiological characteristics of the returning blood flow. As the blood returned to the tail, the VPR sensor cuff measured the tail swelling resulting from arterial blood flow pulsations. Systolic blood pressure was automatically measured at the first appearance of tail swelling. Diastolic blood pressure was automatically measured when the increasing rate of swelling ceased in the tail.

[3] = tested on: C57 and BTBR mice; experiment: Social preference procedure: novelty preference test; details: 1 mg/kg IP
Experimental: All drugs were dissolved in physiological 0.9% saline and administered at a constant volume of 1 ml/100 g body weight. Because all drugs utilized in these studies were synthesized as hydrochloride (HCl) salts, they were weighed as salts prior to the preparation of all solutions. All drugs at all concentrations are readily dissolved in an aqueous solution at normal pH. Injections of all drugs were administered intraperitoneally (IP) to mimic pharmacokinetic parameters typical of oral administration, without the behaviour-impairing effects of gavage stress.
This assay was conducted in adult male C57 and BTBR mice (n=6 per group) in a dedicated conditioning room where ambient light, sound, and human contact were tightly controlled.
Social preference chambers consisted of two polycarbonate boxes (13.5 cm wide×22.5 cm tall×31.0 cm deep), floored with rough-textured black ABS plastic, and connected to one another by a 1.25″ PVC T-junction. An infrared photobeam emitter/detector array was mounted at each intersection of the T-junction and each preference compartment, and as a mouse traversed the apparatus, it would break the photobeam upon entry to or exit from each preference compartment. Beam breaks started or stopped a counter on an interfaced computer, allowing automated collection of time spent in each compartment. At the end of each test, data were reported as time (in seconds) spent in each compartment, the number of entries into each compartment, and the average time spent in each compartment following an entry. Social preference tests were conducted in an iterative manner, with each test subject completing four distinct phases as described below. Between testing sessions, chambers were sanitized by wiping the insides with a disinfectant product provided by the UAMS Department of Laboratory Animal Medicine. At the end of the week (upon completion of all phases of the procedure), each apparatus was disassembled and all parts were sanitized. No food or water were available during social preference sessions, but were available in the home cage immediately afterwards. […]

SMILES	core body temperature change ([1]; either mouse strain)	effect on core temperature ([1]; C57 and BTBR mice)	core temperature response, comparison of strains ([1]; IP)	rise in core body temperature ([1]; IP, any of the doses tested, C57 and BTBR mice)	dose at which hypothermic effects are noted ([1]; IP, both strains)	hypothermic effects after injection ([1]; IP, both strains, greater in C57 at 10, 18, 30 and 56 mg/kg)	cardiovascular effects (systolic, diastolic, mean arterial pressure) ([2]; 10 mg/kg and 30 mg/kg IP, C57 and BTBR mice)	toxicity (blood pressure) relative to racemic MDMA [2]	blood pressure rise relative to racemic MDMA and S-methamphetamine ([2]; both strains)	effect on novelty preference (time spent with dummy mouse) [3]	core body temperature change ([1]; C57 mice)	systolic and diastolic blood pressure ([2]; 10 mg/kg i.p.)
c1cc2c(cc1C[C@H]1CCCN1)OCO2 [(R)-I, (R)-2-[(2H-1,3-benzodioxol-5-yl)methyl]pyrrolidine]	did not elicit a rise or drop in core body temperature	hypothermic effect	more acute response in C57 mice	did not result in a rise in core body temperature	≥ 10 mg/kg	dose-dependent hypothermic effects	lower impact on cardiovascular effects than (S)-I	significantly less toxic	significantly lower	no systematic effects		
c1cc2c(cc1C[C@@H]1CCCN1)OCO2 [(S)-I, (S)-2-[(2H-1,3-benzodioxol-5-yl)methyl]pyrrolidine]		hypothermic effect	more acute response in C57 mice					significantly less toxic		no systematic effects	significant drop in temperature	higher systolic and diastolic blood pressure than (R)-I
